Experiments:
Experiment in all cases: selective drug sensitivity score (sDSS, relative to normal bone marrow) (sDSS (score)); higher = more potent and effective on the cell line relative to normal bone marrow cells
Conditions in all cases: 72 h
[1] = tested on: RPMI-8402
[2] = tested on: RCH-ACV
[3] = tested on: CCRF-CEM
[4] = tested on: P30-OHKUBO
[5] = tested on: NALM-16
[6] = tested on: PF-382
[7] = tested on: MOLT-16
[8] = tested on: 380
[9] = tested on: COG-LL-319h
[10] = tested on: COG-LL-402h
[11] = tested on: KASUMI-10
[12] = tested on: KASUMI-9
[13] = tested on: REH
[14] = tested on: SUP-B15
[15] = tested on: MHH-CALL-2
[16] = tested on: CCRF-HSB2
[17] = tested on: MN-60
[18] = tested on: COG-LL-394h
[19] = tested on: MHH-CALL-3
[20] = tested on: HAL-01
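Further: ALL cell lines in 384-well plates, five doses spanning 10,000-fold, each plate scaled between vehicle and 100 µmol/L benzalkonium chloride controls, sDSS an adapted area-under-curve metric.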

Structure (SMILES)	selective drug sensitivity score [1]	selective drug sensitivity score [2]	selective drug sensitivity score [3]	selective drug sensitivity score [4]	selective drug sensitivity score [5]	selective drug sensitivity score [6]	selective drug sensitivity score [7]	selective drug sensitivity score [8]	selective drug sensitivity score [9]	selective drug sensitivity score [10]	selective drug sensitivity score [11]	selective drug sensitivity score [12]	selective drug sensitivity score [13]	selective drug sensitivity score [14]	selective drug sensitivity score [15]	selective drug sensitivity score [16]	selective drug sensitivity score [17]	selective drug sensitivity score [18]	selective drug sensitivity score [19]	selective drug sensitivity score [20]
CN(C)C(=N)NC(=N)N [Metformin] (top concentration 100000 nM)	-0.02	-0.02	-0.02	-0.02	-0.02	-0.02	-0.02	-0.02	-0.02	-0.02	-0.02	-0.02	0.08	-0.02	0.58	-0.02	-0.02	-0.02	-0.02	-0.02
C[C@H]1C[C@@H]2[C@H]([C@@H](O)C[C@@]3(C)[C@H]2CC[C@]3(O)C(=O)CO)[C@@]2(C)C=CC(=O)C=C12 [Methylprednisolone] (top concentration 10000 nM)	-2.1	30.2	6.4	18.6	-2.3	-1.6	7.9	27.2	14.2	18.5	-2.3	4	-2.3	32.9	26.5	13.9	-1.5	-2.3	33.2	1.5
FC(F)(F)c1ccc(/C=C/c2nc(COc3ccc(CCCCn4ccnn4)cc3)co2)cc1 [Mubritinib] (top concentration 1000 nM)	22.5	12.7	6.06	7.06	4.66	14.2	18.6	0.66	11.1	-0.84	-2.24	3.56	20	10.6	4.76	9.36	17.6	16.2	3.06	3.06
COc1cc2c(cc1OC(C)C)[C@H](c1ccc(Cl)cc1)N(c1ccc(N(C)C[C@H]3CC[C@H](N4CCN(C)C(=O)C4)CC3)cc1)C(=O)C2 [NVP-CGM097] (top concentration 25000 nM)	-4.64	10.6	-4.24	10.2	-4.54	-5.04	10.4	11.4	10.8	12.1	11.7	14.5	5.16	18.6	10.8	8.76	-0.44	6.56	13.1	10.6
CCOc1cc2ncc(C#N)c(Nc3ccc(OCc4ccccn4)c(Cl)c3)c2cc1NC(=O)/C=C/CN(C)C [Neratinib] (top concentration 1000 nM)	3.08	5.38	2.48	2.78	1.78	0.88	1.98	4.98	6.58	7.78	3.68	3.68	-0.12	1.48	2.58	1.78	0.38	5.48	4.98	-0.42
COc1ncc(-c2ccc3nccc(-c4ccnnc4)c3c2)cc1NS(=O)(=O)c1ccc(F)cc1F [Omipalisib] (top concentration 1000 nM)	10.9	30	12	18.6	8.1	9.8	10	22.2	9.8	13.4	1.6	12.6	14.4	7.3	11	8.4	8.9	-1.1	11.4	20.1
CN1CCN(c2cc(C(=O)Nc3ccc4c(c3)-c3c(c(C(N)=O)nn3-c3ccc(F)cc3)CC4)c(Cl)cn2)CC1 [PHA-408] (top concentration 10000 nM)	1.88	5.28	0.48	1.48	-4.62	1.48	1.28	5.68	5.08	-3.92	0.18	2.48	0.08	3.08	1.58	1.88	-4.12	-1.22	-0.72	2.58
OC[C@H]1O[C@@H](n2cnc3c2N=CNC[C@H]3O)C[C@@H]1O [Pentostatin] (top concentration 10000 nM)	-0.44	-0.44	-0.34	-0.44	-0.44	-0.44	-0.34	-0.44	3.06	-0.44	-0.44	-0.44	-0.44	0.66	-0.44	-0.44	-0.44	-0.44	-0.44	0.36
CC(C)N(C[C@H]1O[C@@H](n2cnc3c(N)ncnc32)[C@H](O)[C@@H]1O)[C@H]1C[C@@H](CCc2nc3cc(C(C)(C)C)ccc3[nH]2)C1 [Pinometostat] (top concentration 1000 nM)	0	0	0	0	0	0	0	0	0	0	0	0	0	0	0	0	0.3	0	0	0
